Structures are written as SMILES.

Series [1] is described as follows: Unbound fraction in cynomolgus monkey brain at 1 mg/kg, sc by LC-MS/MS analysis. The class given is ADME, organism-based, Macaca fascicularis. On the set-up: dose 1 mg/kg, route subcutaneous.
A short description of series [2]: AUC(0 to infinity) in Sprague-Dawley rat plasma at 3.2 mg/kg, sc by LC-MS/MS analysis. On the set-up: time infinity, dose 3.2 mg/kg, route subcutaneous. Format: ADME, organism-based.
Series [3] is described as follows: Ratio of drug level in brain to plasma in cynomolgus monkey at 1 mg/kg, sc by LC-MS/MS analysis. The class given is ADME, organism-based, Macaca fascicularis. On the set-up: dose 1 mg/kg, route subcutaneous. As to conditions: brain and plasma, read-out: BPR.
Series [4] can be described thus: Unbound fraction in Beagle dog plasma at 1 mg/kg, sc by LC-MS/MS analysis. The class given is ADME, organism-based, Canis lupus familiaris. On the set-up: dose 1 mg/kg, route subcutaneous.
Series [5] can be described thus: AUC(0 to 4 hrs) in Beagle dog plasma at 1 mg/kg, sc by LC-MS/MS analysis. On the set-up: time < 4 hr, dose 1 mg/kg, route subcutaneous. Format: ADME, organism-based, Canis lupus familiaris.
Series [6] is described as follows: Ratio of drug level in brain to plasma in Beagle dog at 1 mg/kg, sc by LC-MS/MS analysis. Format: ADME, organism-based, Canis lupus familiaris. Details: dose 1 mg/kg, route subcutaneous. As to conditions: brain and plasma, read-out: BPR.
In series [7] the test system is Nucleic Acid. The series can be described thus: Ratio of drug level in cerebrospinal fluid to unbound plasma concentration in Sprague-Dawley rat at 3.2 mg/kg, sc by LC-MS/MS analysis. On the set-up: dose 3.2 mg/kg, route subcutaneous. The class given is ADME, organism-based. As to conditions: in vivo.
Series [8] in a line: Ratio of unbound drug level in brain to plasma in Sprague-Dawley rat at 3.2 mg/kg, sc by LC-MS/MS analysis. Format: ADME, organism-based. On the set-up: dose 3.2 mg/kg, route subcutaneous.
Series [9] can be described thus: Ratio of unbound drug level in brain to plasma in cynomolgus monkey at 1 mg/kg, sc by LC-MS/MS analysis. Format: ADME, organism-based, Macaca fascicularis. On the set-up: dose 1 mg/kg, route subcutaneous. As to conditions: brain and plasma.
A short description of series [10]: Unbound fraction in cynomolgus monkey plasma at 1 mg/kg, sc by LC-MS/MS analysis. Format: ADME, organism-based, Macaca fascicularis. Details: dose 1 mg/kg, route subcutaneous.
A short description of series [11]: AUC(0 to 2 hrs) in Sprague-Dawley rat brain at 3.2 mg/kg, sc by LC-MS/MS analysis. Format: ADME, organism-based. Details: time < 2 hr, dose 3.2 mg/kg, route subcutaneous.
Series [12] is described as follows: AUC(0 to infinity) in Sprague-Dawley rat cerebrospinal fluid at 3.2 mg/kg, sc by LC-MS/MS analysis. Format: ADME, organism-based. On the set-up: time infinity, dose 3.2 mg/kg, route subcutaneous.
Series [13] is described as follows: AUC(0 to 2 hrs) in cynomolgus monkey plasma at 1 mg/kg, sc by LC-MS/MS analysis. Format: ADME, organism-based, Macaca fascicularis. Details: time < 2 hr, dose 1 mg/kg, route subcutaneous.
Series [14] is described as follows: AUC(0 to 2 hrs) in Sprague-Dawley rat plasma at 3.2 mg/kg, sc by LC-MS/MS analysis. Format: ADME, organism-based. On the set-up: time < 2 hr, dose 3.2 mg/kg, route subcutaneous.
The nature of series [15]: Unbound fraction in Beagle dog brain at 1 mg/kg, sc by LC-MS/MS analysis. Details: dose 1 mg/kg, route subcutaneous. Format: ADME, organism-based, Canis lupus familiaris.
Series [16] in a line: AUC(0 to 2 hrs) in cynomolgus monkey cerebrospinal fluid at 1 mg/kg, sc by LC-MS/MS analysis. The class given is ADME, organism-based, Macaca fascicularis. Details: time < 2 hr, dose 1 mg/kg, route subcutaneous.
A short description of series [17]: AUC(0 to 2 hrs) in cynomolgus monkey brain at 1 mg/kg, sc by LC-MS/MS analysis. On the set-up: time < 2 hr, dose 1 mg/kg, route subcutaneous. The class given is ADME, organism-based, Macaca fascicularis.
A short description of series [18]: AUC(0 to infinity) in Sprague-Dawley rat brain at 3.2 mg/kg, sc by LC-MS/MS analysis. The class given is ADME, organism-based. Details: time infinity, dose 3.2 mg/kg, route subcutaneous.
Series [19] is described as follows: Ratio of unbound drug level in brain to plasma in Beagle dog at 1 mg/kg, sc by LC-MS/MS analysis. Format: ADME, organism-based, Canis lupus familiaris. Details: dose 1 mg/kg, route subcutaneous. As to conditions: brain and plasma.
In series [20] the test system is Nucleic Acid. The series can be described thus: Ratio of drug level in cerebrospinal fluid to unbound plasma concentration in cynomolgus monkey at 1 mg/kg, sc by LC-MS/MS analysis. Format: ADME, organism-based, Macaca fascicularis. Details: dose 1 mg/kg, route subcutaneous. As to conditions: in vivo.
The nature of series [21]: Ratio of unbound brain concentration to drug level in cerebrospinal fluid in cynomolgus monkey at 1 mg/kg, sc by LC-MS/MS analysis. As to conditions: in vivo. Format: ADME, organism-based, Macaca fascicularis. On the set-up: dose 1 mg/kg, route subcutaneous.
Series [22] in a line: Ratio of drug level in brain to plasma in Sprague-Dawley rat at 3.2 mg/kg, sc by LC-MS/MS analysis. Format: ADME, organism-based. On the set-up: dose 3.2 mg/kg, route subcutaneous. As to conditions: read-out: BPR.
Series [23] in a line: AUC(0 to 2 hrs) in Sprague-Dawley rat cerebrospinal fluid at 3.2 mg/kg, sc by LC-MS/MS analysis. Format: ADME, organism-based. On the set-up: time < 2 hr, dose 3.2 mg/kg, route subcutaneous.
Series [24] can be described thus: AUC(0 to 4 hrs) in Beagle dog brain at 1 mg/kg, sc by LC-MS/MS analysis. The class given is ADME, organism-based, Canis lupus familiaris. On the set-up: time < 4 hr, dose 1 mg/kg, route subcutaneous.
Series [25] can be described thus: Ratio of unbound brain concentration to drug level in cerebrospinal fluid in Sprague-Dawley rat at 3.2 mg/kg, sc by LC-MS/MS analysis. Details: dose 3.2 mg/kg, route subcutaneous. The class given is ADME, organism-based. As to conditions: in vivo.
Series [26] is described as follows: AUC(0 to 7 hrs) in Sprague-Dawley rat plasma at 10 mg/kg, sc by LC-MS/MS analysis. On the set-up: time < 7 hr, dose 10 mg/kg, route subcutaneous. Format: ADME, organism-based.
Series [27] can be described thus: AUC(0 to 7 hrs) in Sprague-Dawley rat brain at 10 mg/kg, sc by LC-MS/MS analysis. Details: time < 7 hr, dose 10 mg/kg, route subcutaneous. Format: ADME, organism-based.
The nature of series [28]: AUC(0 to 7 hrs) in Sprague-Dawley rat cerebrospinal fluid at 10 mg/kg, sc by LC-MS/MS analysis. Format: ADME, organism-based. Details: time < 7 hr, dose 10 mg/kg, route subcutaneous.
Series [29] can be described thus: AUC(0 to infinity) in Sprague-Dawley rat plasma at 10 mg/kg, sc by LC-MS/MS analysis. The class given is ADME, organism-based. Details: dose 10 mg/kg, route subcutaneous, time infinity.
A short description of series [30]: AUC(0 to infinity) in Sprague-Dawley rat brain at 10 mg/kg, sc by LC-MS/MS analysis. The class given is ADME, organism-based. Details: time infinity, dose 10 mg/kg, route subcutaneous.
A short description of series [31]: Ratio of drug level in brain to plasma in Sprague-Dawley rat at 10 mg/kg, sc by LC-MS/MS analysis. The class given is ADME, organism-based. Details: dose 10 mg/kg, route subcutaneous. As to conditions: read-out: BPR.
Series [32] can be described thus: AUC(0 to infinity) in Sprague-Dawley rat cerebrospinal fluid at 10 mg/kg, sc by LC-MS/MS analysis. Details: time infinity, dose 10 mg/kg, route subcutaneous. Format: ADME, organism-based.
Series [33] is described as follows: Ratio of unbound brain concentration to drug level in cerebrospinal fluid in Sprague-Dawley rat at 10 mg/kg, sc by LC-MS/MS analysis. Format: ADME, organism-based. Details: dose 10 mg/kg, route subcutaneous. As to conditions: in vivo.
A short description of series [34]: Ratio of unbound drug level in brain to plasma in Sprague-Dawley rat at 10 mg/kg, sc by LC-MS/MS analysis. On the set-up: dose 10 mg/kg, route subcutaneous. Format: ADME, organism-based.

In general, fraction unbound refers to free concentration divided by total concentration. Usually AUC(0-inf) stands for the area under the concentration-time curve extrapolated to infinity. One may read the AUC(0-t) as the area under the concentration-time curve up to a stated or last time point. Take `CNCc1cc(F)c(Cl)cc1Oc1cccc(OC)c1C`: the fraction unbound in [1] is 0.0038; in series [4], 0.0162; in series [10] it was 0.0279; in series [15], 0.00443. The AUC(0-inf) in series [2] was determined as 479 ng·h/mL; in series [12], 8.12 ng·h/mL; in series [18] it was 5570 ng·h/mL. Also, the Kp in [3] was determined as 15; in series [6] it was 16.9; in series [22] it was 11.1. For the same compound, the figures for the AUC(0-t) at 4 h in series [5] and in series [24] were 134 ng·h/mL and 2260 ng·h/mL, respectively. Moreover, the Ratio turned out to be 1.47 in the series with Nucleic Acid [7], 0.52 in the series with Nucleic Acid [20], 3.92 in [21] and 2.65 in series [25]. Besides, the Kp uu in series [8] is 3.9; in series [9], 2.04; in series [19], 4.61. Moreover, the AUC(0-t) at 2 h in [11] was 3360 ng·h/mL; in series [13] it was 150 ng·h/mL; in series [14], 302 ng·h/mL; in series [16] it was 2.18 ng·h/mL; in [17] it was 2250 ng·h/mL; in [23], 6.42 ng·h/mL.

For `CN(C)CCCC1(c2ccc(F)cc2)OCc2cc(C#N)ccc21` (racemic) [CITALOPRAM], the AUC(0-t) at 7 h turned out to be 930 ng·h/mL in series [26], 12500 ng·h/mL in series [27] and 401 ng·h/mL in series [28]. The values for the AUC(0-inf) in series [29], in series [30] and in series [32] were 958 ng·h/mL, 12900 ng·h/mL and 421 ng·h/mL, respectively. For the same compound, the Kp in series [31] was 13.4. Also, the Ratio in series [33] was determined as 0.89. For the same compound, the Kp uu in series [34] was determined as 1.08.

The values are drawn from ChEMBL document CHEMBL3526130, “An evaluation of using rat-derived single-dose neuropharmacokinetic parameters to project accurately large animal unbound brain drug concentrations” (Drug Metab Dispos, 2012).
